pIC50: −log10 of the molar value.

For the assay, the system named is Influenza A virus (A/Puerto Rico/8/1934(H1N1)). In words: Antiviral activity against Influenza A virus (A/Puerto Rico/8/34(H1N1)) PR/8 infected in MDCK cells assessed as protection against virus-induced cytopathogenicity after 48 hrs by crystal-violet staining-based assay. The class given is functional, organism-based. As to conditions: PR/8, MDCK.
As to `CC(C)=CCc1ccc2[nH]c3c(c2c1)C[C@@H]1CC[C@@]2(O)C4=CC(=O)[C@@H](C(C)(C)O)O[C@H]4CC[C@]2(C)[C@@]31C`, the negative logarithm of the IC50 (pIC50) was 5.18. Next, `CC(C)(O)[C@@H]1CC[C@]2(C(=O)O)[C@H](CC[C@@]3(C)[C@H]2CC[C@H]2Cc4c([nH]c5ccccc45)[C@@]23C)O1`: 4.41; `CC(C)(O)[C@@H]1CC=C2[C@H](CC[C@@]3(C)[C@H]2CC[C@H]2Cc4c([nH]c5ccccc45)[C@@]23C)O1`: 4.55; `CC(C)=CCC[C@](C)(O)[C@H](O)CC/C(C)=C/CC/C(C)=C/Cc1c[nH]c2ccccc12`: 4.47. Next, `CC(C)=CCc1cc2[nH]c3c(c2cc1CC=C(C)C)C[C@@H]1CC[C@@]2(O)C4=CC(=O)[C@@H](C(C)(C)O)O[C@H]4CC[C@]2(C)[C@@]31C`: 4.13; `CC(C)(O)[C@H]1O[C@H]2CC[C@@]3(C)[C@@](O)(CC[C@H]4Cc5c([nH]c6ccccc56)[C@@]43C)C2=CC1=O` [PAXILLINE]: 4.75. On to `CC(C)(O)[C@@H]1CC[C@]2(C)[C@H](CC[C@@]3(C)[C@H]2CC[C@H]2Cc4c([nH]c5ccccc45)[C@@]23C)O1` [PASPALINE], for which the pIC50 is 4.11. For the compound `CC(C)=CCC[C@]1(C)[C@@H](O)CC[C@@]2(C)[C@H]1CC[C@H]1Cc3c([nH]c4ccccc34)[C@@]12C` [EMINDOLE SB], the pIC50 is 4.58.

Turning to `CC(C)(O)[C@H]1O[C@H]2CC[C@@]3(C)[C@@H](CC[C@H]4Cc5c([nH]c6ccccc56)[C@@]43C)[C@]2(O)[C@H](O)[C@H]1O`, the pIC50 was 4.49. Next, `CC(O)(CO)[C@H]1O[C@H]2CC[C@@]3(C)[C@@](O)(CC[C@H]4Cc5c([nH]c6ccccc56)[C@@]43C)C2=CC1=O` (some centres not stated): 3.90; `NC(=O)c1ncn([C@@H]2O[C@H](CO)[C@@H](O)[C@H]2O)n1` [RIBAVIRIN]: 3.95. The same measure for `CC(C)(O)[C@H]1O[C@H]2CC[C@@]3(C)[C@@H](CC[C@H]4Cc5c([nH]c6ccccc56)[C@@]43C)C2=CC1=O` [DEHYDROXYPAXILLINE]: < 3.82.

The record behind these values is ChEMBL document CHEMBL2407078, “Indole-diterpenoids with anti-H1N1 activity from the aciduric fungus Penicillium camemberti OUCMDZ-1492” (J Nat Prod, 2013).
